Target: T1, BCL10-MALT1 interaction (Homo sapiens, UniProt Q9UDY8)
T1 sequence (Q9UDY8 1-824): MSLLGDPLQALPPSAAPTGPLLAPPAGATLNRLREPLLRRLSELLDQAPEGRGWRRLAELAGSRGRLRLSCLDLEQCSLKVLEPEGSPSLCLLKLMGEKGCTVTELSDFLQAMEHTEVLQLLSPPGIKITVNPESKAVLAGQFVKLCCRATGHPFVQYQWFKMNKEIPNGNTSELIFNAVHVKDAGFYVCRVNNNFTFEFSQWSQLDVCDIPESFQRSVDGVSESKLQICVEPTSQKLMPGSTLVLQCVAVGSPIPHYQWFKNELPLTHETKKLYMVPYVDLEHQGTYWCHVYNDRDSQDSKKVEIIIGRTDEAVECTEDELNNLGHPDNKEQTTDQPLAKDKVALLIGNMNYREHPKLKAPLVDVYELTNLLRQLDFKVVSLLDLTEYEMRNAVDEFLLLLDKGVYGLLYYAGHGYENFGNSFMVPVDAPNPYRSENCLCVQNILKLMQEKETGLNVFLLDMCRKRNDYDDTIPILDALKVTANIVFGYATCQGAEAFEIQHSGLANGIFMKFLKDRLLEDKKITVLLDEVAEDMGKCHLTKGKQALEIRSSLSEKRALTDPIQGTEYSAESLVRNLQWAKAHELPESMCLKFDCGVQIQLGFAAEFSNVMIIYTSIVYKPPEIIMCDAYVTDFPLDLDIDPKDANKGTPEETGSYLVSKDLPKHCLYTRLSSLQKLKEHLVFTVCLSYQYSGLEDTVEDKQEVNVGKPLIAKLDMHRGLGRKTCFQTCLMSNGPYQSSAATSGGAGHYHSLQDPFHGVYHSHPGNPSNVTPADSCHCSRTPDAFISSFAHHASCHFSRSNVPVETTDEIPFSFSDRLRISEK
Experiment: ELISA-based protein-protein interaction assay, BCL10-MALT1 (FIG. 2F, 2H); His-tagged recombinant human full-length Bcl10 on plate, GST-tagged recombinant human full-length MALT1
Design: GST-tagged recombinant human full-length MALT1 protein; GST; purchased Novus Biologicals H00010892-P01
Details: compound preincubated with 100 ng GST-MALT1 for 1 hour, 100 ng His-Bcl10 on plate, one-site binding fit, read-out: IC50 for inhibition of BCL10-MALT1 binding (ELISA)
Description: FIG. 2. In silico screening identifies small molecules targeting the predicted BCL10-binding groove within MALT1 (Ig1-2). (A) We performed a structure-guided in silico screen of 3 million compounds, using the LibDock program from Discovery Studio 3.5, in order to identify candidate molecules that could potentially fit within the identified groove in the MALT1 Ig1-2 domain. Lipinski's rule of five filters (LipinskiRo5) were applied to enrich for compounds with drug-like properties. Potential compound hits were then screened for their ability to disrupt the MALT1-BCL10 interaction using SPR analysis. 9 candidate compounds were then subjected to a second, ELISA-based MALT1-BCL10 interaction assay, identifying 2 compounds that could disrupt the interaction in both SPR and ELISA assays. M1i-124 and M1i-1255 are the two compounds identified to disrupt the BCL10-MALT1 interaction. M1i-124 became our lead compound and M1i-1255 is partially characterized in FIG. 8. (B) Structure of M1i-124. (C) Model of M1i-124 docked onto the MALT1 Ig1-2 domain groove (PDB 3K0W). […] (E) SPR analysis was performed to determine the IC50 for M1i-124 disruption of the BCL10-MALT1 interaction in a dose-response assay. (F) ELISA analysis confirmed that M1i-124 disrupts the interaction between BCL10 and MALT1 in dose dependent fashion (left). […] Circles highlight sites that differ from parent compound, M1i-124. […]

IC50: 8.45 µM
SMILES: COc1ccc(CNS(=O)(=O)c2ccc(Cc3ccc(S(=O)(=O)NCc4ccc(OC)cc4)cc3)cc2)cc1 [M1i-124d1]

— patent US20240124410A1, “SMALL MOLECULES AND THEIR USE AS MALT1 INHIBITORS” (University of Pittsburgh - Of the Commonwealth System of …, priority 2021, published 2024)
